Legend:
[1] = test system: murine splenocytes; test: Immune cell activation (CD69 expression, FACS) in murine splenocytes; type: cell-based, mouse; conditions: 20 hours; for activation of immune cell populations (CD69 expression) / immune cell activation compared with R848 and control oligonucleotide: 200 nM DOTAP-complexed; for immune cell activation compared with R848 and control oligonucleotide: R848 1 μM; for NKT cell activation (CD69) / T cell activation (CD69) / granulocyte activation (CD69): compared with R848 1 μM
Experimental: In addition, upon removal of the supernatant at 20 hours post-incubation, the mouse cells were stained for the following cell markers: GR1, F4/80, CD11c, CD220, CD3, Ly49b, and CD69, and analyzed by FACS. Different immune cell populations were distinguished as follows: macrophages (F4/80^+/GR1^−); plasmacytoid dendritic cells or pDC (CD11c^+/CD220^+); B cells (CD220^+/CD11c^−); NK (CD3^−/Ly49b^+); myeloid DC or mDC ([…]); granulocytes (eosinophils) (GR1^+high/F4/80^−); T cells (CD3^+); and NKT cells (CD3^+/Ly49b^+). All immune cell populations were quantified by the expression of CD69 (am early activation marker).

[2] = biological target: T1, human TLR8 (Homo sapiens, UniProt Q9NR97); test: HEK-Blue hTLR8 NF-kB-inducible SEAP reporter assay (TLR8 activation); type: cell-based
T1 construct: host or cells: HEK293 (HEK-Blue hTLR8) with NF-kB-inducible SEAP reporter
T1 sequence (Q9NR97 27-1041): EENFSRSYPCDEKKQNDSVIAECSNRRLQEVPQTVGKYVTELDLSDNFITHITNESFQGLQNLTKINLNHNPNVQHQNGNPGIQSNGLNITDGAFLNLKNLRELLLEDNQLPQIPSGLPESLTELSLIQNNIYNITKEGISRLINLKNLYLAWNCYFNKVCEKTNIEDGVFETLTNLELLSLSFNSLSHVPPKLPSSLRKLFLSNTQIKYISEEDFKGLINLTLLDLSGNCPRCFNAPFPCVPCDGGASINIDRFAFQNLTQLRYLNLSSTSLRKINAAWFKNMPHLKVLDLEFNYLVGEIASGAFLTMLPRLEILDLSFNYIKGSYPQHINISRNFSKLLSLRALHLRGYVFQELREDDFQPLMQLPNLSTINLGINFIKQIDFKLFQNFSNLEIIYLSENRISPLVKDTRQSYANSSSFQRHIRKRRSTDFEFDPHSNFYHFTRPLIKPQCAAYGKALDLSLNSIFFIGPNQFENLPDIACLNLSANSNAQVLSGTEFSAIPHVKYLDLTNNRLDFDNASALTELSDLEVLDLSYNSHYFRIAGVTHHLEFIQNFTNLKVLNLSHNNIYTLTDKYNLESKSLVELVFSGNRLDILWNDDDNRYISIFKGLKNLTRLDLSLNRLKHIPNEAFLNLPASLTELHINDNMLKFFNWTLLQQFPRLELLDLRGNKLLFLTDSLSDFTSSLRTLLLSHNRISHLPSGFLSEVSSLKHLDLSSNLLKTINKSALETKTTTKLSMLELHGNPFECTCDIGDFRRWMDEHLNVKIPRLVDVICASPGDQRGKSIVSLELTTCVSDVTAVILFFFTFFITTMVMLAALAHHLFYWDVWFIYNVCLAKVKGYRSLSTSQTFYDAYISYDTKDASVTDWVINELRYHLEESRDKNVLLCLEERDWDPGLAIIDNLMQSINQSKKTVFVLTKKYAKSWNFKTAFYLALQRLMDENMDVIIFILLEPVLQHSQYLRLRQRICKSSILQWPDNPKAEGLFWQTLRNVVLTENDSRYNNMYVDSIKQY

[3] = test system: J774 murine macrophages; test: TNF-α induction in mouse macrophage cell line J774; type: cell-based
Experimental: Induction of TNF-α by macrophages is a hallmark of human TLR8 activation (Forsbach et al., 2008, J. Immunol., 180:3729-38; Ghosh et al., 2007, Int. Immunopharmacol., 7:1111-21; Gorden et al., 2005, J. Immunol., 174:1259-68). […] In the following experiment mouse macrophage cell line, J774, has been transfected by test ribonucleotides as described above for HEK-Blue™ hTLR8 cells (with the exception that 2-10×10^4 cells/well were used) and TNF-α was measured in culture supernatants at 16-20 hours after transfection.

| Substance | activation of immune cell populations (CD69 expression) [1] | immune cell activation compared with R848 and control oligonucleotide [1] | NKT cell activation (CD69) ([1]; 200 nM) | T cell activation (CD69) ([1]; 200 nM) | granulocyte activation (CD69) ([1]; 200 nM) | macrophage activation (CD69) ([1]; 200 nM, compared with R-0006) | TLR8 activation (fold increase of SEAP induction over the background), described in words [2] | TNF-α induction, described in words [3] | concentration at which TNF-α induction reached plateau [3] | B-cell activation (CD69) ([1]; 200 nM, compared with R-0006) |
| --- | --- | --- | --- | --- | --- | --- | --- | --- | --- | --- |
| 5′-AGAUGUUA--UUGUUU-AAUAUUU-3′ (AGAUGUUAUUGUUUAAUAUUU; phosphorothioate backbone, further chemistry not given here) [SL-0014, phosphorothioated ribonucleotide from SL-0001; dashes signify deleted nucleotides] | induced activation in most of the tested immune cell populations | at least comparable to that generated by treatment with 1 μM of R848, and usually exceeded the effects exhibited by the control oligonucleotide R-0006 | exceeded the activation observed for R848 | exceeded the activation observed for R848 | exceeded the activation observed for R848 | especially higher than the activation observed for R-0006 |  |  |  |  |
| 5′-AUUUAUUUUUAAAUUUUUGUGU-3′ (phosphorothioate, further chemistry not given here) [SL-0023, phosphorothioated ribonucleotide completely contained within SL-0005] |  |  |  |  |  |  | even stronger activity than the parental SL-0005 sequence |  |  |  |
| 5′-CUGUGUGAACGAUAGUGCAG-3′ (phosphorothioate, further chemistry not given here) [SL-0019, phosphorothioated ribonucleotide derived from SL-0004] |  |  |  |  |  |  | markedly weaker | weaker than the level of induction observed for the other oligonucleotides |  |  |
| 5′-GUUUAUCUGUGUG----------CAGUUUAAAC-3′ (GUUUAUCUGUGUGCAGUUUAAAC; phosphorothioate, further chemistry not given here) [SL-0020, dashes signify deleted nucleotides] |  |  |  |  |  |  | activity similar or exceeding that of SL-0004 | most potent | 300 nM |  |
| 5′-UUAUUUUGUUUUUAAUAUUU-3′ (phosphorothioate backbone, further chemistry not given here) [SL-0012] | induced activation in most of the tested immune cell populations | at least comparable to that generated by treatment with 1 μM of R848, and usually exceeded the effects exhibited by the control oligonucleotide R-0006 | exceeded the activation observed for R848 | exceeded the activation observed for R848 | exceeded the activation observed for R848 | especially higher than the activation observed for R-0006 |  |  |  |  |
| 5′-UUAUUUUGUUUUUAAUAUUUC-3′ (phosphorothioate backbone, further chemistry not given here) [SL-0011] | induced activation in most of the tested immune cell populations | at least comparable to that generated by treatment with 1 μM of R848, and usually exceeded the effects exhibited by the control oligonucleotide R-0006 | exceeded the activation observed for R848 | exceeded the activation observed for R848 | exceeded the activation observed for R848 | especially higher than the activation observed for R-0006 |  |  |  | especially higher than the activation observed for R-0006 |

— patent US20120177701A1, “COMPOSITIONS COMPRISING IMMUNOSTIMULATORY NUCLEIC ACIDS AND RELATED METHODS” (priority 2010, published 2012)
